From patent publication US20040106148A1, “Polypeptides” (priority 2000, published 2004)
“And” between values parts separate entries of the source, which are not always exact repeats. Equal values may be shown once.

Biological target: T1, human TAPP1, full length (FL-TAPP1, accession AF286160), wild type, GST fusion (Homo sapiens, UniProt Q9HB21, T320A)
T1 construct: made in house; host or cells: human embryonic kidney 293 cells (pEBG-2T)
Experiment: Surface plasmon resonance (BIACore), GST fusion binding to phosphoinositide in supported lipid monolayer
Settings: supported phosphatidylcholine monolayers, 1:1 binding model, NB, no binding detected, read-out: Apparent Kd
Procedure: Expression of GST-PH domains in human embryonic kidney 293 cells. […] For the expression of each construct, twenty 10 cm diameter dishes of 293 cells were cultured and each dish transfected with 5 μg of the pEBG-2T construct, using a modified calcium phosphate method. 36 h post-transfection, the cells were lysed in 1 ml of ice-cold Buffer A, the lysates pooled, centrifuged at 4° C. for 10 min at 13,000×g and the GST-fusion proteins were purified by affinity chromatography on glutathione-Sepharose and stored as described above.
Cloning TAPP1, TAPP2, FAPP1 and PEPP1. Full length human TAPP1, full length mouse TAPP2, partial mouse TAPP1, partial human TAPP2, and full length human and mouse FAPP1 sequences were deduced by sequencing the EST clones listed in Table 3. […] The constructs used to express full length and deletion mutants of TAPP1 and TAPP2 were generated by PCR, using as a template ESTs encoding full length human TAPP1 (accession number AI216176) and full length mouse TAPP2 (accession number AA111410). […]
Kinetic analyses of the interactions between the GST PH domain fusions and the polyphosphoinositides were made using surface plasmon resonance based procedures as described previously, with the following modifications. […] Data were analysed using the bimolecular interaction model and the global fitting feature of the BIAevaluation 3 software for several sensorgrams at different protein concentrations. […] The relative binding affinities of each protein relative to the binding of full length GST-TAPP1 to PtdIns(3,4)P2 were also calculated.
We studied the specificity and affinity of interaction of the PH domains for phosphoinositide lipids using either a “protein-lipid overlay” assay (FIG. 2) or the more quantitative surface plasmon resonance based approach (Table 2). […] For the surface plasmon resonance based assay, the apparent Kd values of the GST PH domain fusion proteins resulting from their interaction with a supported lipid monolayer containing a low mole fraction of phosphoinositide, was determined (Table 2).

T1 sequence (Q9HB21 whole entry T320A, the tested form may be a part): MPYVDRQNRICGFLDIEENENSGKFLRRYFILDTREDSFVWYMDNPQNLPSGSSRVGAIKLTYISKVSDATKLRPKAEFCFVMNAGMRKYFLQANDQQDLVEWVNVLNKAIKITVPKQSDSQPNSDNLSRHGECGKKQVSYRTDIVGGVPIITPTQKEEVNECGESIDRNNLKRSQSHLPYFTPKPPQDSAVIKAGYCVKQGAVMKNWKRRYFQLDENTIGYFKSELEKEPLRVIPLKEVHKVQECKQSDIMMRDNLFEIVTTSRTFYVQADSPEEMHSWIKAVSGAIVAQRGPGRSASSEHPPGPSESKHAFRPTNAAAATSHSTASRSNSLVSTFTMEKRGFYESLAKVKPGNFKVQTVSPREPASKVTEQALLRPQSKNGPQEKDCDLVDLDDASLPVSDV

Kd: 5 nM and ~5 nM
Structure (SMILES): CCCCCCCCCCCCCCCC(=O)OC[C@H](COP(=O)(O)O[C@H]1[C@H](O)[C@@H](O)[C@H](OP(=O)(O)O)[C@@H](OP(=O)(O)O)[C@H]1O)OC(=O)CCCCCCCCCCCCCCC [PtdIns(3,4)P2]
